SMILES strings stand for the structures. A value given as a limit tells only on which side of the number the result lay.

With `N#CN=c1[nH]c2cc(Cl)c(Cl)c([N+](=O)[O-])c2[nH]c1=O`, the melting point (usually the temperature of the solid-liquid transition) was in the range of 280 to 285 °C. Next, `CCc1nn2ccccc2c1-c1n[nH]c(=O)cc1C`: 216 to 217 °C; `COc1cc(OC)c(C2=NC(NC(=O)Nc3cccc(C)c3)C(=O)N(C)c3ccccc32)c(OC)c1` (stereo unspecified): 240 °C. Next, `COP(=O)(CC(=C(c1ccc(F)cc1)c1ccc(F)cc1)c1nnnn1C)OC`: 140 to 141 °C. On to `C[C@@H]1N=C(c2ccccc2Cl)c2cc(N)ccc2N(C)C1=O`, for which the melting point amounted to 221 °C. Next, `CCC(CC)=NOC(=O)c1cc(-n2c(=O)cc(C(F)(F)F)n(C)c2=O)c(F)cc1Cl`: 128 to 130 °C; `COc1ccc(S(=O)(=O)N2Cc3ccccc3N(C(=O)COc3ccccc3)CC2C(=O)O)cc1` (stereo unspecified): 188 to 191 °C. Next, `C=CCC(C#N)(C#N)Cc1ccc(C(F)(F)F)cc1`: 80.2 °C; `COc1ccc2[nH]c(-c3cccc(F)c3)cc(=O)c2c1OP(=O)(O)O`: 179 to 181 °C; `CC(=O)Nc1c(Cl)ccc(C)c1Cl`: 180 to 182 °C. For `COc1cnc(-c2cccn3nc(Nc4ccc(C5CCN(C(=O)OC(C)(C)C)CC5)cc4)nc23)cn1`, the melting point lay in the range of 193 to 195 °C. Next, `COc1cccc(-c2nc(Nc3ccc(Cl)cc3)c3ccccc3n2)n1`: 157 to 160 °C; `CC(C)(C)c1ccc(CNC(=O)NCc2ccc(NS(C)(=O)=O)c(F)c2)cc1`: 95 °C; `CCOC(=O)N1CCn2c(nc(-c3ccncn3)cc2=O)C(CC)C1` (racemic): 160 to 162 °C. Next, `COc1ccc2c(c1)CCC(CN1CCC(O)(Cc3ccc(C)cc3)CC1)C2` (racemic): 91 to 94 °C; `Cc1ccc(C=CC(=O)C2CC2)cc1`: 75 to 76 °C; `CN(CCCNc1ncc(CCc2ccccc2)c(=O)[nH]1)c1ccccn1`: 134 to 136 °C.

Take `CCSN(C)C(=O)Nc1ccc(Cl)c(Cl)c1`: the melting point is 71 °C.

Molecule `CC(C)(C)C1Cc2cc(N3C[C@H](CO)OC3=O)ccc2N1C(=O)OCc1ccccc1` (stereo partly specified) showed a melting point of 141 to 149 °C. Next, `COC(=O)c1sc2cc(CO)ccc2c1C`: 121 to 123 °C.

In the case of `CCCCc1nn(-c2cc([N+](=O)[O-])ccc2Cl)c(C(=O)OCC)c1Cc1ccc(-c2ccccc2S(=O)(=O)NC(=O)c2ccccc2Cl)cc1`, the melting point is over 60 °C.

`CCc1[nH]cc2c1-c1ccc(Cl)cc1C(c1ccccc1Cl)=NC2`: the melting point lay within 251 to 253 °C. In turn, `CC(C)C(NC(=O)OCc1ccccc1)P(O)O` (stereo unspecified) registered a melting point of 108 to 111 °C. Next, `CC1CCCCc2ncc(C#N)c(=O)n21` (stereo unspecified): 154 °C; `Cn1nnc(-c2cccnc2)n1`: 108 to 110 °C; `COc1ccc(C=Cc2nnc(C(Br)(Br)Br)o2)cc1`: 160 to 161 °C. Next, `NCCc1cccc(N2C(=O)N(c3cc(Cl)ccc3Cl)Cc3cnc(Nc4ccccc4)nc32)c1`: 120 to 123 °C.

With `CN1C(=O)C2(CCN(Cc3ccccc3)CC2)N=C(c2ccccc2)c2cc(Cl)ccc21`, the melting point was 169 to 170 °C. Next, `Oc1ccc(C2(c3ccc(O)c(F)c3)c3ccccc3-c3ccccc32)cc1F`: 219 to 221 °C; `CCn1cnc2c(Nc3ccccc3)nc(Cl)nc21`: 158 °C; `O=C(O)Cn1c(-c2cccc(Cl)c2)nc2cccnc21`: 214 to 216 °C. Turning to `Cc1[nH]c(C=O)c(C)c1C(=O)NCCC1CCCN1C` (stereo unspecified), the melting point is 143 to 149 °C. Molecule `Cc1nc(-n2cnn(CCOC(=O)NCc3ccc(F)cc3)c2=O)sc1C(=O)NCc1cccnc1` yielded a melting point of 149 to 150 °C. `CCCCCCCCCCCCCC(=O)Nc1ccc(Cl)c(NC(=CC(=O)OCC)NNc2c(Cl)cc(Cl)cc2Cl)c1` yielded a melting point of 91 to 93 °C. Next, `CS(=O)(=O)C1(F)Cc2cc(Cl)ccc2C1=O` (stereo unspecified): 150 °C; `CCOC(=O)C1CC12CCN(c1ccc(N3CC(CNC(C)=O)OC3=O)cc1F)CC2` (stereo unspecified): 104 to 106 °C; `Cc1cccc(-c2nc(=O)c3ccccc3s2)n1`: 170 °C.

`CCn1c(=O)c2c(nc(/C=C/c3ccc(OC(C)=O)c(OC)c3)n2C)n(CC)c1=O` returned a melting point of 194 to 195 °C. Next, `Cc1ccc(S(=O)(=O)Cc2c(C#N)nn(-c3ccccc3)c2O)cc1`: 214 °C; `CC1(C)CCCc2cc(CC#Cc3ccc(C(=O)O)c(O)c3)ccc21`: 152 to 153 °C. The molecule `COCCOC(=O)C1=C(C(F)F)NC(C)=C(C(=O)OC(C)C)C1c1cccc(Cl)c1Cl` (stereo unspecified) yielded a melting point of 127 to 128 °C. Next, `CC(=O)NC(=Cc1cccnc1)C(=O)O`: 191 to 192 °C; `CC(CSC(=O)c1ccco1)C(=O)N1CCCC1C(=O)O` (mixture of isomers): 132 to 140 °C.

Take `COc1ccc(C2=NN(C3CCN(S(=O)(=O)c4cccc(C(=O)O)c4)CC3)C(=O)C2(C)C)cc1OC`: the melting point worked out at 244 °C. Next, `CCCC1=C(C#N)C(c2cccc([N+](=O)[O-])c2Cl)c2c[nH]nc2N1` (stereo unspecified): 234 to 235 °C; `CS(=O)(=O)c1cccc(NC(=O)c2cnn3c(C(F)(F)F)cc(-c4ccc(C(F)(F)F)c(Cl)c4)nc23)c1`: 268 °C; `Cc1cc(-c2c(Cl)c(=O)c2=O)c2c(C)ccc(C(C)C)cc1-2`: 138 to 139 °C.

With `Cc1c[nH]c(-c2ccccc2)c1-c1ccccc1`, the melting point fell in the range of 163 to 164 °C. Next, `CC(C)Nc1nc2cc(F)c(F)cc2[nH]1`: 188 to 189 °C; `COc1cc2c(cc1Nc1ncc(Cl)c(N[C@H]3[C@@H](C(N)=O)[C@@H]4C=C[C@H]3C4)n1)CCN(CC(C)O)CC2` (stereo partly specified): 120 °C. For `Cn1c(C(F)(F)F)cc(=O)n(-c2cc([N+](=O)[O-])c(C#N)cc2F)c1=O`, the melting point was 155 to 157 °C. Next, `N#Cc1ccc(N2CCN(Cc3cnc4c(c3)NC(=O)C3CCCCN43)CC2)cc1` (stereo unspecified): 212 °C. Next, `Cc1ccc(-c2cc3c(s2)CCCCC3=O)cc1`: 82 to 84 °C; `CN1CCC(c2ccc(Nc3cc(-c4cccc(-n5ncc6cc(C(C)(C)C)cc(F)c6c5=O)c4CO)nn(C)c3=O)nn2)CC1`: 260 to 265 °C.

In turn, `O=[N+]([O-])c1ccc(OCCCCCOc2ccc([N+](=O)[O-])cc2)cc1` showed a melting point of 101 to 102 °C. Next, `Cc1ccc(N2C(=O)C(O)=C(C(=O)c3ccc(C(C)C)cc3)C2c2ccc(OC(C)C)cn2)nn1` (stereo unspecified): 243 to 245 °C; `CCC(=O)N(C)c1cccc(-c2nc(=O)c3ccccc3s2)n1`: 201 °C. Next, `CS(=O)(=O)NCCn1c(=O)[nH]c2ccccc21`: 162 to 170 °C; `O=C(Nc1ccc(-c2ccc(C(=O)N3CCN4CCC3CC4)o2)cc1)Nc1cccc(F)c1`: 230 °C; `COC(=O)c1sccc1NS(=O)(=O)c1nc2nc(C3CC3)cc(C)n2n1`: 133 to 134 °C. Regarding `O=C(O)CCCCc1ccc(NS(=O)(=O)c2ccc(Cl)cc2)cn1`, the melting point is 145 to 147 °C.

The record behind these values is a melting point compilation (Tetko et al.; mined from patent text by program, amines drawn as free bases though some values may be those of a salt).
